Data taken from patent US4910213A, “Antimycotic agents” (Bayer Aktiengesellschaft, priority 1984, dated 1990).
Converted amounts (≈) assume the structure as drawn.

Tests used:
[1] = test system: Torulopsis glabrata; assay: In vitro antimycotic activity, serial dilution test (MIC); type: cell-based; conditions: Nakaseomyces glabratus, 28° to 37° C., 24 to 96 hours
Procedure: (§1) The in vitro tests were carried out in a serial dilution test using inocula of organisms with an average of 5×10^3 to 10^4 organisms/ml of substrate. The following nutrient medium were used (b) for yeasts: meat extract/glucose broth. The incubation temperature was 28° to 37° C., and the incubation time was 24 to 96 hours for yeasts and 96 hours for dermatophytes and mold fungi.

[2] = test system: Aspergillus fumigatus; assay: as above; type: cell-based; conditions: 28° to 37° C., 96 hours
Procedure: (§2) The in vitro tests were carried out in a serial dilution test using inocula of organisms with an average of 5×10^3 to 10^4 organisms/ml of substrate. The following nutrient medium were used
(§3) (a) for dermatophytes and mold fungi: Sabourand's milieu d'epreuve
(§4) The incubation temperature was 28° to 37° C., and the incubation time was 24 to 96 hours for yeasts and 96 hours for dermatophytes and mold fungi.

[3] = test system: Trichophyton mentagr.; assay: as above; type: cell-based, Trichophyton mentagrophytes; conditions: 28° to 37° C., 96 hours
Procedure: as §2, §3, §4

[4] = test system: candida cells; assay: In vivo antimycotic activity (oral) on candidosis of the mouse; set-up: species or system mouse (SPF-CF1) infected with candida; conditions: 10-100 mg/kg; for Action (class of survival on day 6 after infection): 1 hour before and 7 hours after infection; for surviving on day 6 after infection: good or very good actions, untreated controls about 5%
Procedure: Type SPF-CF1 mice were infected intravenously with 1-2×10^6 logarithmically growing candida cells which are suspended in physiological saline solution. The animals are each treated orally with 10-100 mg/kg of body weight of the products 1 hour before and 7 hours after the infection. Untreated animals died on days 3 to 6 after the infection. The survival rate on day 6 after the infection was about 5% for untreated control animals.

[5] = test system: dermatophytes, mold fungi and yeasts; assay: In vitro antimycotic activity, overall comparison with known compounds; type: cell-based; conditions: in vitro serial dilution test
Procedure: as §1, with “used (a) for dermatophytes and mold fungi: Sabourand's milieu d'epreuve” for “used”

[6] = test system: Candida albicans; assay: In vitro antimycotic activity, serial dilution test (MIC); type: cell-based; conditions: 28° to 37° C., 24 to 96 hours
Procedure: as §1

[7] = test system: Microsporum canis; assay: as above; type: cell-based; conditions: 28° to 37° C., 96 hours
Procedure: as §2, §3, §4

| Structure (SMILES) | MIC [1] [µg/mL] | MIC [2] [µg/mL] | MIC [3] [µg/mL] | MIC [6] [µg/mL] | MIC [7] [µg/mL] | Action (class of survival on day 6 after infection) [4] | surviving on day 6 after infection [4] [%] | antimycotic action compared with compounds (A), (B) and (C) [5] |
| --- | --- | --- | --- | --- | --- | --- | --- | --- |
| OC(Cn1cncn1)(Cn1cncn1)c1cccc(Cl)c1 [(A), reference compound] | > 64 | > 64 | 32 (≈ 105 µM) | – | – | – | – | – |
| OC(Cn1cncn1)(c1ccc(F)cc1)C1(n2cncn2)CC1 (stereo not shown) [Example I-2] | – | – | – | – | – | +++++ (very good action = 90% surviving on day 6 after infection) | > 60 | – |
| OC(Cn1cncn1)(Cn1cncn1)c1ccccc1 [(C), reference compound] | > 64 | > 64 | 64 (≈ 237 µM) | 64 (≈ 237 µM) | – | – | – | – |
| OC(Cn1cncn1)(Cn1cncn1)c1ccc(Cl)cc1 [(B), reference compound] | 64 (≈ 210 µM) | > 64 | 16 (≈ 52.5 µM) | 2 (≈ 6.56 µM) | – | – | – | – |
| OC(Cn1cncn1)(c1ccc(Cl)cc1)C1(n2ccnc2)CC1 (stereo not shown) [Example I-10] | – | – | – | – | – | +++ (action = 60% surviving on day 6 after infection) | > 60 | – |
| Cc1ccc(C(O)(Cn2cncn2)C2(n3cncn3)CC2)cc1 (stereo not shown) [Example I-5] | – | – | – | – | – | ++++ (good action = 80% surviving on day 6 after infection) | > 60 | – |

The next lines start with results.

| MIC [1] [µg/mL] | MIC [2] [µg/mL] | MIC [3] [µg/mL] | MIC [6] [µg/mL] | MIC [7] [µg/mL] | Structure (SMILES) | Action (class of survival on day 6 after infection) [4] | surviving on day 6 after infection [4] [%] | antimycotic action compared with compounds (A), (B) and (C) [5] |
| --- | --- | --- | --- | --- | --- | --- | --- | --- |
| > 64 | 32 (≈ 96.7 µM) | 2 (≈ 6.05 µM) | 8 (≈ 24.2 µM) | 32 (≈ 96.7 µM) | OC(Cn1cncn1)(c1ccc(Cl)cc1)C1(n2cncn2)CC1 (stereo not shown) [Example I-1, 1-(4-chlorophenyl)-1-[1-(1,2,4-triazol-1-yl)cyclopropyl]-2-(1,2,4-triazol-1-yl)-1-ethanol] | +++++ (very good action = 90% surviving on day 6 after infection) | > 60 | better antimycotic action than compounds (A), (B) and (C) |
| > 64 | 32 (≈ 108 µM) | 4 (≈ 13.5 µM) | 8 (≈ 27 µM) | 32 (≈ 108 µM) | OC(Cn1cncn1)(c1ccccc1)C1(n2cncn2)CC1 (stereo not shown) [Example I-6] | +++++ (very good action = 90% surviving on day 6 after infection) | > 60 | better antimycotic action than compounds (A), (B) and (C) |
| 8 (≈ 21.5 µM) | 8 (≈ 21.5 µM) | < 1 | 2 (≈ 5.37 µM) | 4 (≈ 10.7 µM) | OC(Cn1cncn1)(c1ccc(-c2ccccc2)cc1)C1(n2cncn2)CC1 (stereo not shown) [Example I-3] | +++ (action = 60% surviving on day 6 after infection) | > 60 | better antimycotic action than compounds (A), (B) and (C) |
| 32 (≈ 85.3 µM) | 64 (≈ 171 µM) | < 1 | 4 (≈ 10.7 µM) | 32 (≈ 85.3 µM) | OC(Cn1cncn1)(c1ccc(Br)cc1)C1(n2cncn2)CC1 (stereo not shown) [Example I-7] | ++++ (good action = 80% surviving on day 6 after infection) | > 60 | better antimycotic action than compounds (A), (B) and (C) |
